We go through five compounds from publication PMC8067766 (International Journal of Molecular Sciences, 2021).

The nature of series [1]: Transmission electron microscopy of fibrils. Conditions: 1.0 mg/mL in PBS pH 7.4, TEM, uranyl acetate stain. The series is classed as physicochemical. The method, then: (§1) All peptides were dissolved in Eppendorf Low Retention Tubes in 1.0 mL of PBS pH 7.4. The concentration of the solutions of peptides was 1.0 mg/mL. The peptides were incubated at 37 °C with constant orbital shaking. Aliquots for the evaluation of the fibrillization process were taken before incubation and after 1, 2, 3, 6, 14, and 21 days or only after 7 days, depending on the experiments.
Peptide samples (5 µL) were applied on a glow-discharged carbon-coated copper grid (400 mesh). After 1 min of adsorption, excess liquid was removed using filter paper, and the samples were stained with 2% (v/v) aqueous uranyl acetate. The samples were examined with a TECNAI SPIRIT BIO TWIN FEI (FEI Company, Hillsboro, OR, USA) at 120 kV, with nominal magnifications between 11,500 and 39,000. The assay was performed for samples before (after dissolution) and after 3 days of incubation.

The nature of series [2]: Thioflavin T fluorescence assay. The series is classed as physicochemical. The following applies: 1.0 mg/mL in PBS pH 7.4, 37 °C, orbital shaking; ThT excitation 420 nm, emission 482 nm. The method, then:
as §1
Ten microliters of peptide solution incubated under fibrillization conditions (see Fibril preparation) were mixed with 10 µL of 1.5 mM ThT in water and 90 µL of PBS pH 7.4. The fluorescence was measured on a Tecan Infinite 200Pro (Tecan Group Ltd., Männedorf, Switzerland) spectrofluorometer in 96-well plates (Costar Black®), with excitation wavelength set at 420 nm and emission in the range of 455 to 600 nm.

The nature of series [3]: Circular dichroism over incubation. The series is classed as physicochemical. Conditions: 1.0 mg/mL in PBS pH 7.4, 37 °C with agitation, up to 14 days; centrifuged clear solution, far-UV 195-250 nm. As to the method:
Circular dichroism spectra were recorded on a Jasco J-815 spectropolarimeter (Jasco, Victoria, BC, Canada). Far-UV spectra (195–250 nm) were registered for all peptides dissolved in PBS pH 7.4 at a concentration of 1.0 mg/mL and incubated at 37 °C with agitation. Spectra were recorded before and after 1,2, 3, 7, 10 and 14 days of incubation. All spectra were corrected for the buffer signal. The CD spectra were recorded three times, using a 0.2 mm cell.

The target of series [4] is T1, human neutrophil elastase (Homo sapiens, UniProt P08246).
T1 construct: purchased Sigma Aldrich
T1 sequence (P08246 30-267): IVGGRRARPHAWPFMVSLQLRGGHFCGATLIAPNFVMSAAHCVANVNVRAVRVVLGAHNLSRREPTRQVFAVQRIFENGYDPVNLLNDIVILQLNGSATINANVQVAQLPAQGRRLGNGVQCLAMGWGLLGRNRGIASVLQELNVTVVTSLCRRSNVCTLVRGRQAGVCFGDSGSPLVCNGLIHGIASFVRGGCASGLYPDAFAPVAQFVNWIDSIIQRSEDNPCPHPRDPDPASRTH
Description: Incubation with neutrophil elastase (release of active sequence). The series is classed as in vitro ADME. Conditions: non-fibrillated peptide 1.0 mM, 0.1 M Tris HCl, 500 mM NaCl, 0.05% Triton X-100, 20 mM CaCl2, pH 7.5; enzyme 150 nM; 30 min, 37 °C; RP-UHPLC (PDA) and LC-MS. The method, then: An enzymatic stability study was performed using the human neutrophil elastase enzyme (Sigma Aldrich, St. Louis, MO, USA). The peptides were dissolved in a buffer (with composition: 0.1 M Tris HCl, 500 mM NaCl, 0.05% Triton X-100, 20 mM CaCl2, pH 7.5), to a final concentration 1.0 mM. The fibrils formed in the aggregation process were dissolved in PBS at pH 7.4 to a concentration of 1 mg/mL. The enzyme was added to the peptide/fibril solution to a concentration of 150 nM and incubated for 30 min (peptides) or 60 min (fibrils), at 37 °C, with agitation. A 10% aqueous TFA solution was added to the reaction mixture to stop the digestion. The progress of the reaction was monitored by RP-UHPLC with a PDA (Photo Diode Array) detector on a Kinetex C8 column (2.6 μm, 100 Å 2.6 × 100 mm, Phenomenex, Torrance, CA, USA), at a gradient of 0–50% B for 15 min, and by LC-MS.

The nature of series [5]: Peptide stability in human plasma (TCA assay). The series is classed as in vitro ADME. Conditions: human plasma (EDTA), 37 °C, 300 rpm, TCA 3% precipitation, RP-HPLC UV 223 nm, at least triplicates. As to the method:
Peptide stability tests were performed according to a TCA stability assay based on the method used by Nguyen et al.. Peptides were dissolved in water, mixed with human plasma* to a final concentration of 1.0 mg/mL, and incubated at 37 °C with agitation (300 rpm, Thermomixer, Eppendorf AG, Hamburg, Germany). After 0, 1, 2, 3, 6 and 24 h, 80 μL of the solution was taken and mixed with 15% TCA to obtain a final concentration of 3% (v/v). The samples were incubated in ice for 10 min and centrifuged for 10 min (12,000 rpm, Microfuge 16, Beckman Coulter, Brea, CA, USA). Supernatants were analyzed by RP-HPLC on column using a linear gradient of acetonitrile (5–100% over 15 min) with detection at 223 nm. Peptides were quantified by their peak areas relative to the initial peak areas (0 min). All stability tests were performed at least in triplicates. As control samples peptides dissolved only in water under the same conditions were used. To additionally assess the changes in the incubated samples (peptide degradation) mass spectrometry analysis was used. LC-MS experiments were performed using ESI-IT-TOF (Shimadzu, Kyoto, Japan).
* Blood was collected from healthy anonymous donors and EDTA was then used as an anticoagulant. The procedure was approved by the Independent Bioethics Commission for Research of the Medical University of Gdańsk (NKBBN/387/2014).

In series [6] the test system is 46BR.1N fibroblasts. As to the kind of experiment: XTT proliferation assay, fibroblasts. The series is classed as cell-based, human. The following applies: for inhibition of proliferation (XTT), in words: up to 25 µg/mL. As to the method:
(§2) Immortalized human HaCaT [69, 70] keratinocytes (DKFZ, Heidelberg, Germany) and the human dermal fibroblast cell line 46BR.1N (ECACC, Sigma Aldrich, St. Louis, MO, USA) were used in the study. Cells were routinely grown in culture flasks (growth surface area 25 cm^2) in Dulbecco’s modified Eagle medium (DMEM, Sigma Aldrich, St. Louis, MO, USA), with 4500 mg/L of glucose, 584 mg/L of L-glutamine, sodium pyruvate, and sodium bicarbonate, supplemented with 10% FBS and 100 units/mL of penicillin and 100 μg/mL of streptomycin (Sigma Aldrich, St. Louis, MO, USA), under a humidified atmosphere with 5% CO2 at 37 °C. Medium was changed every 2–3 days.
(§3) Lactate dehydrogenase (LDH) activity in cell culture supernatants (Takara, Japan, cat. No. MK401) was measured to determine the cytotoxicity of the tested compounds, and the XTT assay was used to evaluate their effect on cell proliferation. Both tests were performed as previously described according to manufacturers’ instructions. Briefly, cells were seeded into 96-well plates, at a density of 5000 cells per well, in DMEM supplemented with 10% FBS. After 24 h the medium was exchanged for serum-free DMEM containing appropriate concentrations of the tested compounds. Supernatants for LDH analysis were collected after 48 h of incubation. The XTT assay was performed after 48 and 72 h of incubation.
(§4) For the analysis of the effect of the peptide fibrils on skin cells, the experiment was performed as described, but the cells were stimulated with 10 µL of the fibrils (50 µg/mL) and incubated for 48 h, when the LDH and XTT assay were then performed.

Series [7] relates to HaCaT keratinocytes. As to the kind of experiment: XTT proliferation assay, keratinocytes. The series is classed as cell-based, human. The following applies: for inhibition of proliferation (XTT), in words: up to 25 µg/mL. As to the method:
as §2, §3, §4

Series [8] deals with 46BR.1N fibroblasts. Description: LDH cytotoxicity assay, fibroblasts. Conditions: non-fibrillated peptide 25 µg/mL, 48 h, serum-free DMEM; n = 16. The series is classed as cell-based, human. The method, then: as §2
Lactate dehydrogenase (LDH) activity in cell culture supernatants (Takara, Japan, cat. No. MK401) was measured to determine the cytotoxicity of the tested compounds, and the XTT assay was used to evaluate their effect on cell proliferation. Both tests were performed as previously described according to manufacturers’ instructions. Briefly, cells were seeded into 96-well plates, at a density of 5000 cells per well, in DMEM supplemented with 10% FBS. After 24 h the medium was exchanged for serum-free DMEM containing appropriate concentrations of the tested compounds. Supernatants for LDH analysis were collected after 48 h of incubation. The XTT assay was performed after 48 and 72 h of incubation. […]

Series [9] concerns human neutrophil elastase (Sigma Aldrich), 150 nM. As to the kind of experiment: human neutrophil elastase in buffer (0.1 M Tris HCl, 500 mM NaCl, 0.05% Triton X-100, 20 mM CaCl2, pH 7.5); non-fibrillated peptides. The following applies: 37 °C, up to 30 min.
Series [10] can be described thus: human plasma. Conditions: 37 °C, up to 24 h.
[11] abbreviates: non-fibrillated peptide, 48 and 72 h, serum-free DMEM, n = 16.
Setting [12] is: non-fibrillated peptide, 48 and 72 h.

Where a SMILES comes first, the peptide text is derived from it.

As for `CC[C@H](C)[C@H](NC(=O)CNC(=O)[C@H](C)NC(=O)[C@H](CCC(N)=O)NC(=O)CNC(=O)CNC(=O)CNC(=O)[C@@H](NC(=O)[C@@H]1CCCN1C(=O)[C@H](C)NC(=O)[C@H](C)NC(=O)CNC(=O)CNC(=O)CNC(=O)[C@H](CCCNC(=N)N)NC(=O)[C@H](Cc1ccc(O)cc1)NC(=O)[C@@H](NC(=O)[C@H](CCCCN)NC(=O)[C@H](CC(=O)O)NC(=O)[C@H](CCCNC(=N)N)NC(C)=O)C(C)C)C(C)C)C(=O)N[C@H](C(=O)N[C@H](C(N)=O)C(C)C)C(C)C` [FC-IM] (Ac-RDKVYRGGGAAPVGGGQAGIVV-NH2), the “fibril thickness (TEM)” value in series [1] is recorded as 10–12 nm. In addition, the “time course of ThT fluorescence increase (fibrillization)” value in series [2] is “required at least three days of incubation”. In addition, the “secondary structure by CD” value in series [3] is reported as “disordered structure”. In addition, in series [4], the “Degradation Yes/No by human neutrophil elastase” value is “Yes”. Moreover, the metabolised at 24 h, 1 mg/mL in [5] (peak area relative to 0 min, read-out: peptide loss in human plasma relative to the initial concentration) came to 7%. The “increase in proliferation by fibrils compared to control (XTT)” value in [6] (fibrillated form, 10 µL of fibrils (50 µg/mL), 48 h, three independent experiments) is recorded as “did not stimulate proliferation of either tested cell line”; in series [7] (fibrillated form, 10 µL of fibrils (50 µg/mL), 48 h, not statistically significant), “did not stimulate proliferation of either tested cell line”. The “increase in proliferation compared to the control (XTT)” value in [6] (setting [11]) and in [7] (setting [11]) was 20–30% each time. Moreover, the “inhibition of proliferation (XTT), in words” value in series [6] (setting [12]) was “Slight inhibition of the proliferation of fibroblasts was seen at a concentration of 25 µg/mL after 72 h incubation”; in series [7] (setting [12]) it was “did not decrease the proliferation of HaCaT keratinocytes”.
On to `CC[C@H](C)[C@H](NC(=O)CNC(=O)[C@H](C)NC(=O)[C@@H](N)CCC(N)=O)C(=O)N[C@H](C(=O)N[C@H](C(N)=O)C(C)C)C(C)C` [FC] (H-QAGIVV-NH2), for which the remaining at 24 h, 1 mg/mL in series [5] (rapid precipitation of peptide noted, read-out: peptide remained in solution in human plasma) came to 11%. Besides, the “cytotoxicity (LDH release)” value in [8] was “about 5%”. Also, the “inhibition of proliferation (XTT), in words” value in series [6] (setting [12]) and in series [7] (setting [12]) was “Inhibition of the proliferation of both cell lines was not observed” each time.
On to Ac-GHK-GGG-AAPV-GGG-QAGIVV-NH2, for which, in [9], the cleaved bond result is on record as “V-G, major, 30 min”.
Turning to Ac-K GHK-GGG-AAPV-GGG-QAGIVV-NH2, in [9], the cleaved bond entry is “V-G, major, 30 min”.
In [10], Ac-RDKVYR GGG-AAPV-GGG-QAGIVV-NH2 registered a not cleaved of 7% peptide loss after 24 h. Also, in series [9], the cleaved bond entry is on record as “V-G, major, 30 min” and the fragment found result is recorded as “Ac-RDKVYRGGGAAPVG-COOH”.
